Results: US6592867B2, “Antimicrobial composition containing an oxidoreductase and an enhancer of the N-hydroxyanilide-type” (Novozymes A/S, priority 1998, dated 2003)

Legend:
Assay type in all cases: cell-based
[1] = system: Pseudomonas aeruginosa (ATCC 10145); experiment: Bactericidal activity of laccase plus enhancing agent, surviving cells enumerated by Malthus (Examples 2 and 3)
Protocol: (§1) The antimicrobial activity was determined against Pseudomonas fluorescens (Gram et al. 1990, International Journal of Food Microbiology 10: 303-316) and Staphylococcus epidermidis (DSM 20042). Cells were grown in Tryptone Soya Broth (Oxoid CM129) at 30° C. (S. epidermidis) or 25° C. (P. fluorescens) for 24 h and diluted in the MES-buffer to a final cell concentration of approximately 10^6 cfu/ml. The cell suspensions were mixed with rCiP (3 POXU/ml), enhancing agent (0.2 mM) and hydrogen peroxide (0.5 mM) for 20 min at 40° C. The bactericidal activity was determined by incubation in Malthus. Detection times measured by the Malthus instrument were converted to cfu/ml by a calibration curve. Either direct or Indirect Malthus measurements were used when enumerating total survival cells (Malthus Flexi M2060, Malthus Instrument Limited). By the direct measurements, the cell metabolism was determined by conductance measurements in the growth substrate. By the indirect measurements, 3 ml of growth medium was transferred to the outer chamber of the indirect Malthus cells, and 0.5 ml of sterile KOH (0.1 M) was transferred to the inner chamber. The cell suspensions were after enzyme treatment transferred to the outer chamber of the Malthus cell. As cells are growing in the outer chamber they produce CO2 which will dissolve in the KOH in the inner chamber and thereby change the conductance of the KOH. The amount of CO2 formed by the respiring cells surviving the enzyme treatment was used for estimating the number of viable cells. When the conductance change is measurable by the Malthus, a detection time (dt) will be recorded. The dt's were converted to colony counts by use of a calibration curve relating cfu/ml to dt (Johansen et al. 1995. Journal of Applied Bacteriology 78:297-303, Johansen et al. 1997, Applied and Environmental Microbiology 63:3724-3728). Antibacterial activity of Polyporus pinsitus laccase (rPpL), obtained as described in WO 96/00290), and Coprinus cinereus laccase (rCcL), obtained as described in WO 97/08325, was determined with N-hydroxyacetanilide as enhancing agent against Pseudomonas aeruginosa (ATCC 10145), Enterobacter aerogenes (ATCC 13048) and Enterococcus faecalis (DSM 2570). The bactericidal activity was determined as described in Example 1, the antimicrobial activity of rPpL (1 mg/L) was evaluated at pH 6, whereas rCcL (1 mg/L) was evaluated at pH 8. Antibacterial activity of Coprinus cinereus peroxidase (rCiP), Polyporus pinsitus laccase (rPpL), Coprinus cinereus laccase (rCcL) and Rhizoctonia solani laccase (rRsL) (as described in WO 95/07988) was determined with different enhancing agents at pH 6 and 8 (buffers; see Example 1). The rCiP was combined with 0.5 mM hydrogen peroxide. Antimicrobial activity of rCiP and rPpL was determined against Pseudomonas fluorescens (Gram et al. 1990, International Journal of Food Microbiology 10:303-316), whereas antimicrobial activity of rCcL and rRsL was determined against Pseudomonas aeruginosa (ATCC 10145). The bactericidal activity was determined as described in example 1. The results are shown as the reduction in living cell number. Thus, a reduction of 4 correspond to a 4 log reduction of living cells e.g. from 10^6 CFU/ml to 10^2 CFU/ml.

[2] = system: Enterobacter aerogenes (ATCC 13048); experiment: Bactericidal activity of laccase plus N-hydroxyacetanilide, Malthus (Example 2); conditions: for Bactericidal activity (dose-response): 20 min, 40° C.
Protocol: as §1, with “8.” for “8. Antibacterial activity of Coprinus cinereus peroxidase (rCiP), Polyporus pinsitus laccase (rPpL), Coprinus cinereus laccase (rCcL) and Rhizoctonia solani laccase (rRsL) (as described in WO 95/07988) was determined with different enhancing agents at pH 6 and 8 (buffers; see Example 1). The rCiP was combined with 0.5 mM hydrogen peroxide. Antimicrobial activity of rCiP and rPpL was determined against Pseudomonas fluorescens (Gram et al. 1990, International Journal of Food Microbiology 10:303-316), whereas antimicrobial activity of rCcL and rRsL was determined against Pseudomonas aeruginosa (ATCC 10145). The bactericidal activity was determined as described in example 1. The results are shown as the reduction in living cell number. Thus, a reduction of 4 correspond to a 4 log reduction of living cells e.g. from 10^6 CFU/ml to 10^2 CFU/ml.”

[3] = system: Enterococcus faecalis (DSM 2570); experiment: as above; conditions: 20 min, 40° C.
Protocol: as §1, with “8.” for “8. Antibacterial activity of Coprinus cinereus peroxidase (rCiP), Polyporus pinsitus laccase (rPpL), Coprinus cinereus laccase (rCcL) and Rhizoctonia solani laccase (rRsL) (as described in WO 95/07988) was determined with different enhancing agents at pH 6 and 8 (buffers; see Example 1). The rCiP was combined with 0.5 mM hydrogen peroxide. Antimicrobial activity of rCiP and rPpL was determined against Pseudomonas fluorescens (Gram et al. 1990, International Journal of Food Microbiology 10:303-316), whereas antimicrobial activity of rCcL and rRsL was determined against Pseudomonas aeruginosa (ATCC 10145). The bactericidal activity was determined as described in example 1. The results are shown as the reduction in living cell number. Thus, a reduction of 4 correspond to a 4 log reduction of living cells e.g. from 10^6 CFU/ml to 10^2 CFU/ml.”

[4] = rPpL 1 mg/L, pH 6, high concentration of N-hydroxyacetanilide

CC(=O)N(O)c1ccccc1 [N-hydroxyacetanilide]
significant bactericidal activity: Bactericidal activity (dose-response) ([1]; rCcL 1 mg/L, pH 8, 20 min, 40° C.) | Bactericidal activity (dose-response) ([1]; rPpL 1 mg/L, pH 6, 20 min, 40° C.) | Bactericidal activity (dose-response) ([2]; rCcL 1 mg/L, pH 8) | Bactericidal activity (dose-response) ([2]; rPpL 1 mg/L, pH 6) | Bactericidal activity (dose-response) ([3]; rCcL 1 mg/L, pH 8) | Bactericidal activity (dose-response) ([3]; rPpL 1 mg/L, pH 6)
above 200 μM: Enhancing agent concentration at which bactericidal activity was obtained ([1]; combined with laccase (rPpL or rCcL, 1 mg/L), 20 min, 40° C.)
total kill: Bactericidal activity at high concentration of enhancing agent [1, 4] | Bactericidal activity at high concentration of enhancing agent [2, 4]
